Read-outs that look alike come from different tables or passages of the source.

One assay addresses CDK1-CYCLIN B (Homo sapiens, UniProt P06493). In words: CDK protein kinase inhibition by ADP-Glo assay, CDK1-CYCLIN B. The assay is classed as biochemical. The settings on record: for IC50: read-out: CDK1-CYCLINB, IC50. Here is the method:
(§1) CDK Protein Kinase Inhibition by ADP-Glo Assay
(§2) This ADP-Glo assay measures ADP formed from a kinase reaction and indirectly quantifies the phosphorylation of peptide substrates by the CDK/cyclin protein complexes. The typical assays were carried out in Nanosyn by combining kinase/cyclin complexes, substrates, compounds, and cofactors (ATP and Mg2+) in a well of a 384-well microtiter plate (Corning 3824) and incubating at 22° C. (Table 1). At the end of the incubation, the reaction is quenched, and conversion is detected by luminescence using the Promega ADP-Glo™ Kinase Assay kit (catalog #V9102).
(§3) Final assay buffer mixture contains: • 100 mM HEPES, pH 7.5 • 0.1% BSA • 0.01% Triton X-100 • 1 mM DTT • 5 mM MgCl2 • 10 μM Sodium Orthovanadate • 100 μM Beta-Glycerophosphate • 1000 μM Ultra Pure ATP (provided in the Promega ADP-Glo™ Kinase Assay kit) • 1% DMSO (from compound)
(§4) Upon completion, 5 μL of the ADP Glo reagent was added to each well and the plate was further incubated at room temperature for 45 minutes. 10 uL of the Kinase Detection Reagent was subsequently added to each well. After 10 minutes of incubation, the plate was read and analyzed on the BioTek Synergy microplate reader using BioTek Gen5 software.

The target in a further assay is CDK2-CYCLIN E1 (Homo sapiens, UniProt P24941). In words: CDK protein kinase inhibition by ADP-Glo assay, CDK2-CYCLIN E1. The settings on record: read-out: CDK2-CYCLINE, IC50. The assay is classed as biochemical. The procedure: as §1, §2, §3, §4
The target of another assay is CDK4-CYCLIN D1 (Homo sapiens, UniProt P11802). Nature of the assay: CDK protein kinase inhibition by ADP-Glo assay, CDK4-CYCLIN D1. The assay is classed as biochemical. The settings on record: for IC50: read-out: CDK4-CYCLIND1, IC50. Here is the method: as §1, §2, §3, §4
Chain of CDK4-CYCLIN D1 (P11802 whole entry): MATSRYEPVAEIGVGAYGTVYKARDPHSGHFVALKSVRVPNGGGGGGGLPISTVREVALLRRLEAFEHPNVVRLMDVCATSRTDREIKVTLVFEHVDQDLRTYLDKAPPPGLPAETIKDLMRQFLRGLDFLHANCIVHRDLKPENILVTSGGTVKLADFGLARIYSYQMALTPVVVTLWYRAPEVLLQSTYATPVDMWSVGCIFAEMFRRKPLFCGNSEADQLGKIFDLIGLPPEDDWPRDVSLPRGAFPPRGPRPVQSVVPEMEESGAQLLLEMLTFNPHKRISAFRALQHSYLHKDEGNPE
Chain of CDK4-CYCLIN D1 (P24385 whole entry partner): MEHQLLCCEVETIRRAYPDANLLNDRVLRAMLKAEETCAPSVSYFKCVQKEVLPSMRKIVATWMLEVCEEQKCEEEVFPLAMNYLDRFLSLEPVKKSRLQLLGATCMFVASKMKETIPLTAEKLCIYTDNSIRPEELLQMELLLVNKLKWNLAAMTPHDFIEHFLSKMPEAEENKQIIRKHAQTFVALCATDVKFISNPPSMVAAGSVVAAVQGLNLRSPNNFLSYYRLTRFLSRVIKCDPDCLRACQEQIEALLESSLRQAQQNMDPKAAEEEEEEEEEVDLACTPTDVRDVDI
A further assay addresses CDK6-CYCLIN D3 (Homo sapiens, UniProt Q00534). In words: CDK protein kinase inhibition by ADP-Glo assay, CDK6-CYCLIN D3. The assay is classed as biochemical. The settings on record: for IC50: read-out: CDK6-CYCLIND3, IC50. The procedure:
as §1, §2, §3, §4

A further assay has as its target CDK9-CYCLIN T1 (Homo sapiens, UniProt P50750). In words: CDK protein kinase inhibition by ADP-Glo assay, CDK9-CYCLIN T1. The assay is classed as biochemical. The procedure: as §1, §2, §3, §4
For assay [1], the system named is Phospho-Rb (Ser807/811) in OVCAR3 cells. In words: Phospho-Rb expression inhibition in OVCAR3 cells quantified by In Cell Western. The assay is classed as cell-based. Particulars: Homo sapiens, OVCAR-3, 24 hours, read-out: OVCAR-3 pRb IC50. In short, it runs like this: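 In-cell western: after 24 h compound exposure at 37° C, fixed OVCAR3 cells co-stained for pRb Ser807/811 (800 nm channel) and total Rb (680 nm channel), imaged by LI-COR Odyssey.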

Assay [2] concerns CCNE1-amplified OVCAR3 cells. Nature of the assay: Cell growth inhibition of CCNE1-amplified OVCAR3 cells (CellTiter-Glo). The assay is classed as cell-based. The settings on record: Homo sapiens, OVCAR-3, 144 h, 6 days. In short, it runs like this:
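Growth read-out was CellTiter-Glo luminescence, taken after 10 min at room temperature at the end of a 6-day compound exposure at 37 °C. Compounds were diluted from DMSO stocks across various concentrations.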

The test system of another assay is CCNE1-normal SKOV3 cells. Nature of the assay: Cell growth inhibition of CCNE1-normal SKOV3 cells (CellTiter-Glo). The assay is classed as cell-based. The settings on record: Homo sapiens, SK-OV-3, 144 h, 6 days. Here is the method: Cell Growth Inhibition of CCNE1-Normal SKOV3 Cells
SKOV3 cells were obtained from American Type Culture Collection (ATCC, HTB-77). SKOV3 cells were seeded in 96-well plates at 1000 cells/well in 90 μl of RPM11640 growth medium containing 10% FBS and 1% Penicillin Streptomycin, and then incubated at 37° C. overnight. The following day, the test compound was administered to the cells by using 1000× compound stock solution prepared in DMSO at various concentrations. 1000× compound stock solution was first diluted in culturing medium to 10x, then 10 uL compound medium was added to each well in the cell plates. After administration of the compound, the cells were then incubated at 37° C. for 6 days. Upon completion, the plates were equilibrated at room temperature for approximately 10 minutes. 100 ul of CellTiter-Glo® Reagent (Promega) was added to each well. The plates were then incubated at room temperature for 10 minutes and luminescence was recorded by EnSpire plate reader (PerkinElmer).

Setting [3] is: Table 35, recombinant CDK kinase.

Chain of CDK9-CYCLIN T1 (P50750 whole entry): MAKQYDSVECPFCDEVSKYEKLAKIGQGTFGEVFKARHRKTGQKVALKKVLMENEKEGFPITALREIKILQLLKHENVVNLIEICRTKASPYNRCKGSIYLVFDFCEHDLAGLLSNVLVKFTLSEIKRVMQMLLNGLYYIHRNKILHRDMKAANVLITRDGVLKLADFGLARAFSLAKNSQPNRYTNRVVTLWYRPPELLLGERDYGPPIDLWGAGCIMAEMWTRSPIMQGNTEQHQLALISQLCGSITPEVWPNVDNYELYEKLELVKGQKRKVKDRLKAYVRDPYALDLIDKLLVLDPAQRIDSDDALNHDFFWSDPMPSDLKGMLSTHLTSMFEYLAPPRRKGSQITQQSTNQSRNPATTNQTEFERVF
Chain of CDK9-CYCLIN T1 (O60563 whole entry partner): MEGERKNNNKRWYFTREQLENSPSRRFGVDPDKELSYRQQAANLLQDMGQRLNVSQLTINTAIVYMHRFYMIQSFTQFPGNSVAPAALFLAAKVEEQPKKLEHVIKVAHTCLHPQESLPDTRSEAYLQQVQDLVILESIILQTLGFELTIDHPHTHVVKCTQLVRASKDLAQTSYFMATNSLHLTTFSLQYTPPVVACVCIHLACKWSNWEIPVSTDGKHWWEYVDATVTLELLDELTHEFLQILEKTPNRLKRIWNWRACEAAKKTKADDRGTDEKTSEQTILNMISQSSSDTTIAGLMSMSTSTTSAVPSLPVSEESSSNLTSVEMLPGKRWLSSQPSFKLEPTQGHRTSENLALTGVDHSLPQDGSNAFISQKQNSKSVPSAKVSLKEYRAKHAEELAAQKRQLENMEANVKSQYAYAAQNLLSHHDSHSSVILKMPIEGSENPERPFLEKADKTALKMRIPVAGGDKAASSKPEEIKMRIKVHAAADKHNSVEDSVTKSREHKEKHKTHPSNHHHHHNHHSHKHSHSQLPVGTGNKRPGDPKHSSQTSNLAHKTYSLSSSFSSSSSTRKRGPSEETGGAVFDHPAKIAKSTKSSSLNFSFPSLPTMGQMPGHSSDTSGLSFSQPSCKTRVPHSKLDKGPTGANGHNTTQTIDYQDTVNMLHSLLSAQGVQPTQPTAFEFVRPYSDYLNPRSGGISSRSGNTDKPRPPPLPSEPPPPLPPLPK
Chain of CDK1-CYCLIN B (P06493 whole entry): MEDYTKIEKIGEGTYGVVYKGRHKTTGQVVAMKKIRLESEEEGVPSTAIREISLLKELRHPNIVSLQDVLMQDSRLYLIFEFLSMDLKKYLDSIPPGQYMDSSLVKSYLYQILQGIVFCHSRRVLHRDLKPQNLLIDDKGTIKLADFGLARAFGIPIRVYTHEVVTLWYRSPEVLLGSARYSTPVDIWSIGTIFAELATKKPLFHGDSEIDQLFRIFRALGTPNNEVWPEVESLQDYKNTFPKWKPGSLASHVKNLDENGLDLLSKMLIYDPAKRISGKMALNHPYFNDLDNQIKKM
Chain of CDK1-CYCLIN B (P14635 whole entry partner): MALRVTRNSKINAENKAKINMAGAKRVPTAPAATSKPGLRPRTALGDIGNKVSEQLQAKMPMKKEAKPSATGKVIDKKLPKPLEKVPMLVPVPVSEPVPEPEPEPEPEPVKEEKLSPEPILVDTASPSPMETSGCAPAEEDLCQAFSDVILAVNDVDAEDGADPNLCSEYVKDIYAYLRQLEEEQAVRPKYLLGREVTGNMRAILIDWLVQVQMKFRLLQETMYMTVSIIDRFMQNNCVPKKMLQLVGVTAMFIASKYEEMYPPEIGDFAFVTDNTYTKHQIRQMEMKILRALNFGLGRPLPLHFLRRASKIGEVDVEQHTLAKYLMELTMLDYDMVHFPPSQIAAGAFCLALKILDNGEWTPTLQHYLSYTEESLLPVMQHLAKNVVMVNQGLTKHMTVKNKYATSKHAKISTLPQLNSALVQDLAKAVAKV
Chain of CDK6-CYCLIN D3 (Q00534 whole entry): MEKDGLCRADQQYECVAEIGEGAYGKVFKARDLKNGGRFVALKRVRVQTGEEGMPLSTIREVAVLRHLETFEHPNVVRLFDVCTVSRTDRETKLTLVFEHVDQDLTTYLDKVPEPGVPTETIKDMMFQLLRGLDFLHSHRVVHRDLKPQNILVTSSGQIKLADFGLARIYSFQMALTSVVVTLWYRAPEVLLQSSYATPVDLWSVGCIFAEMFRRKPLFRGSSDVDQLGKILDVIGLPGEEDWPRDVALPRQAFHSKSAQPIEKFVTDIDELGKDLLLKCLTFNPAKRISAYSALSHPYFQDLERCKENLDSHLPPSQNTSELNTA
Chain of CDK6-CYCLIN D3 (P30281 whole entry partner): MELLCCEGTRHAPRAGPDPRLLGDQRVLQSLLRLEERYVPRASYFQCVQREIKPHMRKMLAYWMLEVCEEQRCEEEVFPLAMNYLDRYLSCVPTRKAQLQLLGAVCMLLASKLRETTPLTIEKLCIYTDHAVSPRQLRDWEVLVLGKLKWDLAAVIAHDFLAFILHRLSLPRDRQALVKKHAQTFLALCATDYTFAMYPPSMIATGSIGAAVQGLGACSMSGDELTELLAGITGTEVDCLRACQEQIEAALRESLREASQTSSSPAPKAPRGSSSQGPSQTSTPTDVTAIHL

For the compound `[2H]C1([2H])Oc2cc(ccn2)Nc2cc(n[nH]2)[C@H]2CC[C@H](C2)OC(=O)N[C@H]2C[C@H]1C2` [Compound 177, (1^1S,1^3R,7^1R,7^3S,Z)-2^1H-5,10-dioxa-3,8-diaza-4(4,2)-pyridina-2(3,5)-pyrazola-1(1,3)-cyclopentana-7(1,3)-cyclobutanacyclodecaphan-9-one-6,6-d2], the IC50 is 10 to 50 nM at CDK1-CYCLIN B (ADP-Glo, 1000 μM ATP, Table 27); 10 to 50 nM at CDK1-CYCLIN B (setting [3]); no more than 10 nM at CDK2-CYCLIN E1 (ADP-Glo, 1000 μM ATP, Table 27); no more than 10 nM on CDK2-CYCLIN E1 (setting [3]); 50 to 100 nM at CDK4-CYCLIN D1 (ADP-Glo, 1000 μM ATP, Table 27); 10 to 50 nM on CDK4-CYCLIN D1 (setting [3]). The IC50 on CDK6-CYCLIN D3 (ADP-Glo, 1000 μM ATP, Table 27) lay within 100 to 500 nM; on CDK6-CYCLIN D3 (setting [3]) it was 10 to 50 nM; on CDK9-CYCLIN T1 (ADP-Glo, 1000 μM ATP, Table 27, read-out: CDK9-CYCLINT1 IC50) it was 100 to 500 nM; on CDK9-CYCLIN T1 (Table 35, recombinant CDK kinase, read-out: CDK9-CYCLINT1, IC50) it was 50 to 100 nM; in assay [1], 2 to 10 nM; in assay [2] it was 10 to 50 nM. In addition, at CDK1-CYCLIN B (CDK2 versus CDK1, Table 28), the “CDK2 Fold selectivity, CDK1” value is on record as “E (E, <20)”. For the same compound, the “CDK2 Fold selectivity against CDK1” value on CDK1-CYCLIN B (Table 36, fold selectivity for CDK2 over CDK1, recombinant CDK kinases) was “E (E, <20)”. Besides, the “CDK2 Fold selectivity, CDK4” value on CDK4-CYCLIN D1 (CDK2 versus CDK4, Table 28) was “D (D, >20 and ≤50)”. On CDK4-CYCLIN D1 (Table 36, fold selectivity for CDK2 over CDK4, recombinant CDK kinases), the “CDK2 Fold selectivity against CDK4” value is “E (E, <20)”. Also, the “CDK2 Fold selectivity, CDK6” value at CDK6-CYCLIN D3 (CDK2 versus CDK6, Table 28) is “D (D, >20 and ≤50)”. The “CDK2 Fold selectivity against CDK6” value at CDK6-CYCLIN D3 (Table 36, fold selectivity for CDK2 over CDK6, recombinant CDK kinases) is “E (E, <20)”. In addition, the “CDK2 Fold selectivity, CDK9” value on CDK9-CYCLIN T1 (CDK2 versus CDK9, Table 28) is “D (D, >20 and ≤50)”. In addition, the “CDK2 Fold selectivity against CDK9” value at CDK9-CYCLIN T1 (Table 36, fold selectivity for CDK2 over CDK9, recombinant CDK kinases) was “D (D, >20 and ≤50)”.
For the compound `[2H]C1([2H])CC[C@H](C)NC(=O)O[C@@H]2CC[C@@H](C2)c2cc([nH]n2)Nc2cc(F)nc(c2)O1` [Compound 179, (1^1S,1^3R,9S,Z)-4^6-fluoro-9-methyl-2^1H-5,12-dioxa-3,10-diaza-4(4,2)-pyridina-2(3,5)-pyrazola-1(1,3)-cyclopentanacyclododecaphan-11-one-6,6-d2], the IC50 is 10 to 50 nM in assay [1], 50 to 250 nM in assay [2] and greater than 1250 nM in the assay with CCNE1-normal SKOV3 cells.
For `[2H]C1([2H])CC(F)(F)[C@H](C)NC(=O)O[C@@H]2CC[C@@H](C2)c2cc([nH]n2)Nc2ccnc(c2)O1` [Compound 182, (1^1S,1^3R,9S,Z)-8,8-difluoro-9-methyl-2^1H-5,12-dioxa-3,10-diaza-4(4,2)-pyridina-2(3,5)-pyrazola-1(1,3)-cyclopentanacyclododecaphan-11-one-6,6-d2], in that order: 2 to 10 nM, 10 to 50 nM and 250 to 1250 nM.
As for `C[C@@H]1NC(=O)O[C@@H]2CC[C@@H](C2)c2n[nH]c(c2F)Nc2ccnc(c2)OCCC1(F)F` [Compound 188, (1^1S,1^3R,9S,E)-2^4,8,8-trifluoro-9-methyl-2^1H-5,12-dioxa-3,10-diaza-4(4,2)-pyridina-2(3,5)-pyrazola-1(1,3)-cyclopentanacyclododecaphan-11-one], the IC50 was 10 to 50 nM in assay [1], 50 to 250 nM in assay [2] and greater than 1250 nM in the assay with CCNE1-normal SKOV3 cells.
In the case of `C[C@@H]1NC(=O)O[C@@H]2CC[C@@H](C2)c2cc([nH]n2)Nc2cncc(c2)OCCC1(F)F` [Compound 190, (1^1S,1^3R,9S,Z)-8,8-difluoro-9-methyl-2^1H-5,12-dioxa-3,10-diaza-4(3,5)-pyridina-2(3,5)-pyrazola-1(1,3)-cyclopentanacyclododecaphan-11-one], the IC50 in assay [1] lay in the range of 2 to 10 nM; in assay [2], 10 to 50 nM; in the assay with CCNE1-normal SKOV3 cells, 250 to 1250 nM.
For `C[C@@H]1NC(=O)O[C@@H]2CC[C@@H](C2)c2cc([nH]n2)Nc2cnnc(c2)OCCC1(F)F` [Compound 218, (1^1S,1^3R,9S,Z)-8,8-difluoro-9-methyl-2^1H-5,12-dioxa-3,10-diaza-4(5,3)-pyridazina-2(3,5)-pyrazola-1(1,3)-cyclopentanacyclododecaphan-11-one], the IC50 in assay [1] was 10 to 50 nM; in assay [2] it was greater than 250 nM; in the assay on CCNE1-normal SKOV3 cells, greater than 1250 nM.
With `C[C@@H]1NC(=O)O[C@@H]2CC[C@@H](C2)c2cc([nH]n2)Nc2cncc(n2)OCCC1(F)F` [Compound 219, (1^1S,1^3R,9S,Z)-8,8-difluoro-9-methyl-2^1H-5,12-dioxa-3,10-diaza-4(2,6)-pyrazina-2(3,5)-pyrazola-1(1,3)-cyclopentanacyclododecaphan-11-one], the IC50 in assay [1] was no more than 2 nM; in assay [2], no more than 2 nM; in the assay on CCNE1-normal SKOV3 cells, 10 to 50 nM.
For the compound `C[C@H]1NC(=O)O[C@@H]2CC[C@@H](C2)c2cc([nH]n2)Nc2ccnc(c2)OCCC1(F)F` [Compound 220, (1^1S,1^3R,9R,Z)-8,8-difluoro-9-methyl-2^1H-5,12-dioxa-3,10-diaza-4(4,2)-pyridina-2(3,5)-pyrazola-1(1,3)-cyclopentanacyclododecaphan-11-one], the IC50 in assay [1] lay in the range of 2 to 10 nM; in assay [2], 10 to 50 nM; with CCNE1-normal SKOV3 cells, 250 to 1250 nM.
On to `C[C@H]1NC(=O)O[C@@H]2CC[C@@H](C2)c2n[nH]c(c2F)Nc2ccnc(c2)OCCC1(F)F` [Compound 228, (1^1S,1^3R,9R,E)-2^4,8,8-trifluoro-9-methyl-2^1H-5,12-dioxa-3,10-diaza-4(4,2)-pyridina-2(3,5)-pyrazola-1(1,3)-cyclopentanacyclododecaphan-11-one], for which the figures for the concentration for half-maximal inhibition (IC50) (in assay [1]; in assay [2]; in the assay with CCNE1-normal SKOV3 cells) were 50 to 250 nM, 50 to 250 nM and greater than 1250 nM, respectively.
For `C[C@@H]1CCCNC(=O)O[C@@H]2CC[C@@H](C2)c2cc(n[nH]2)Nc2ccnc(c2)O1` [compound 11], the IC50 in assay [1] was 10 to 50 nM; in assay [2], 50 to 250 nM; with CCNE1-normal SKOV3 cells, greater than 1250 nM.
In the case of `O=C1NC23CC(CCc4cc(cc(C(F)F)n4)Nc4cc([nH]n4)[C@H]4CC[C@H](C4)O1)(C2)C3` [compound 20], the figures for the IC50 (in assay [1]; in assay [2]; in the assay with CCNE1-normal SKOV3 cells) were 10 to 50 nM, 10 to 50 nM and greater than 1250 nM, respectively.
As to `O=C1NC23CC(CCOc4cc(cc(C(F)F)n4)Nc4cc([nH]n4)[C@H]4CC[C@H](C4)O1)(C2)C3` [compound 23], the IC50 in assay [1] is no more than 2 nM; in assay [2], 2 to 10 nM; in the assay on CCNE1-normal SKOV3 cells, 50 to 250 nM.
As for `C[C@@H]1OCCCNC(=O)O[C@@H]2CC[C@@H](C2)c2cc([nH]n2)Nc2ccnc1c2` [compound 72], the values for the IC50 (in assay [1]; in assay [2]; in the assay with CCNE1-normal SKOV3 cells) were 10 to 50 nM, greater than 250 nM and greater than 1250 nM, respectively.
On to `C[C@H]1CCC2(CC2)NC(=O)O[C@@H]2CC[C@@H](C2)c2cc([nH]n2)Nc2ccnc(c2)O1` [compound 110], for which the IC50 in assay [1] was 50 to 250 nM; in assay [2], greater than 250 nM; in the assay with CCNE1-normal SKOV3 cells, greater than 1250 nM.
